# Measurements published in US20150125457A1, “BONE REPAIR PROMOTER” (DAIICHI SANKYO COMPANY, LIMITED, priority 2012, published 2015).
# Bridges are numbered along the chain shown (N, C = ends). Where no end group is shown, it is not given here.
# Experiments:
# NPR-B = molecular target: T1, NPR-B (Homo sapiens, UniProt P20594); conditions: literature reports (Furuya et al. 1992; US 2010-305031); cited from earlier work
# T1 sequence (P20594 23-1047): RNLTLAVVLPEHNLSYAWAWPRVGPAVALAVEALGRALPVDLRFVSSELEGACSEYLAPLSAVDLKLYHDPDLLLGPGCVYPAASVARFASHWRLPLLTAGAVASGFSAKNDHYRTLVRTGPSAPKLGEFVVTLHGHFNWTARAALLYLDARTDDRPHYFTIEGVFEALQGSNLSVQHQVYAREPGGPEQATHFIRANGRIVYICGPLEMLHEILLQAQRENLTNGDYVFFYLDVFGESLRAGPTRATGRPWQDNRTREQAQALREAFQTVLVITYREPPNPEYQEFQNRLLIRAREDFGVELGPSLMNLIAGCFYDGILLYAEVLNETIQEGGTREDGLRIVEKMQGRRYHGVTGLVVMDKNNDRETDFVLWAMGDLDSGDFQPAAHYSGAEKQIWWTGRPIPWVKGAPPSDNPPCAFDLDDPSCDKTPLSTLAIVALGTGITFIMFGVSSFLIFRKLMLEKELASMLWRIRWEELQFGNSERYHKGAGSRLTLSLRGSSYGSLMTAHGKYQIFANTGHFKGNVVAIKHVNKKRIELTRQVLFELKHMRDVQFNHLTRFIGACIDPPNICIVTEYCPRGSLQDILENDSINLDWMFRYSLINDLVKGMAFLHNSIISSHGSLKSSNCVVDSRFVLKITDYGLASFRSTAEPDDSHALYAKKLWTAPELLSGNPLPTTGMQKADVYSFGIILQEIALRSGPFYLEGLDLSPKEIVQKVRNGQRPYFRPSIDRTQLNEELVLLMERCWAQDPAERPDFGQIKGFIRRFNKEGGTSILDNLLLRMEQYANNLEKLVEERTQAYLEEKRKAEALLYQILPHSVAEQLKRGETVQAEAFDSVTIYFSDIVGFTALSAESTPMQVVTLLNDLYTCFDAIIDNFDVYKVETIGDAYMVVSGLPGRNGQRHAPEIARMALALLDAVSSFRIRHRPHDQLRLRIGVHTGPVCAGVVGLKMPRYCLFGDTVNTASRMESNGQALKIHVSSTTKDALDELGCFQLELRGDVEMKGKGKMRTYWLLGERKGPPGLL
# type X collagen gene = assay: Rat closed femur fracture model, cartilage-related marker gene expression (real-time PCR); format: in vivo; conditions: Example 4: 0.5 mg/kg/day continuous s.c. for one week; 7 days after fracture; versus vehicle group; FIG. 5C
# Description: In accordance with the method of Example 2, a rat closed fracture model was prepared. For an animal in a Sham group, a pin only was inserted into the femur, and a bone fracture was not prepared. An administration solution of CNP derivative A was prepared so as to be a dosage corresponding to 0.5 mg/kg/day, and then loaded into an osmotic pump (model 2001, Alzet). The osmotic pump was buried under the skin of the neck back of the animal, and continuous subcutaneous administration was performed for one week. Vehicle was continuously subcutaneously administered to the control group. 7 days after the preparation of the bone fracture, the animal was subjected to isoflurane inhalation anesthesia, retained in a supine position to open the abdomen, and then bled for the euthanasia. The left femur was resected, and immersed into RNAlater (Life Technologies Corporation). The diaphysis or part of the callus was cut out from the femur that had been refrigerated in RNAlater for one day or more. To the cut-out diaphysis or part of the callus, QIAzol (QIAGEN) was added, and the resultant was crushed with tungsten beads. The total RNA was extracted by an RNeasy Mini Kit (QIAGEN), and 1st strand cDNA was synthesized by a SuperScript VILO cDNA Synthesis Kit (Life Technologies Corporation). The gene expression level was measured by a real-time PCR method using TaqMan Gene Expression Master Mix (Life Technologies Corporation). The measured value was standardized by the gene expression level of ubiquitin-C. The standardization was performed for 12 cases in each group.
# (§1) In accordance with the method of Example 2, a rat closed fracture model was prepared. An administration solution was prepared so as to be a dosage corresponding to 0.5 mg/kg/day by using various NPR-B agonists (CNP derivative A, hCNP-53 (SEQ ID NO: 2), CNP derivative C (CNP-36, amino acid Nos. 18 to 53 of SEQ ID NO: 2), and CNP derivative D (Pro-Gly-CNP37, SEQ ID NO: 15)), and then loaded into an osmotic pump (Model 2001, Alzet). The osmotic pump was buried under the skin of the neck back of the animal retained in a supine position, and continuous subcutaneous administration was performed for one week. Vehicle was administered to the control group. 7 days after the preparation of the bone fracture, the animal was subjected to isoflurane inhalation anesthesia, retained in a supine position to open the abdomen, and then subjected to blood collection from the abdominal aorta. EDTA Na was added to the blood, then the EDTA Na-added blood was centrifuged and the plasma separated, and the resultant was cryopreserved. At a later date, the cGMP level in the plasma was measured by a RIA method using a kit (YSI-7702, YAMASA CORPORATION). After blood collection, the animal was bled for the euthanasia, and then the left femur was resected. Each maximum diameter of the sagittal plane and the coronal plane in the callus was measured, and the average value was used as a callus diameter. In accordance with the method of Example 3, the type X collagen gene expression level in the callus was measured. The measurement was performed for 12 cases in each group.
# [1] = test system: rat closed femur fracture model; assay: Rat closed femur fracture model, callus diameter; format: in vivo; conditions: 0.5 mg/kg/day continuous s.c. for one week; 7 days after fracture; versus vehicle group; FIG. 5B
# Description: as §1
Substance,NPR-B agonist activity compared with hCNP-22 (in words) (NPR-B),Gene expression level of type X collagen in the callus (type X collagen gene),Maximum diameter of the callus generated in the left femur [1]
"CNP6-22: peptide consisting of only the ring structure, amino acid Nos. 6 to 22 of SEQ ID NO: 1 (CFGLKLDRIGSMSGLGC; disulfide 1-17 (inferred))",almost the same NPR-B agonist activity as that of hCNP-22,–,–
"CNP derivative C: hCNP-36, 17 consecutive amino acids from the N terminus of hCNP-53 deleted; amino acid Nos. 18 to 53 of SEQ ID NO: 2 (EHPNARKYKGANKKGLSKGCFGLKLDRIGSMSGLGC; mammalian)",–,significantly suppressed,significantly larger
"CNP derivative D: Pro-Gly-CNP37, SEQ ID NO: 15; derivative described in WO 2009/067639 (PGQEHPNARKYKGANKKGLSKGCFGLKLDRIGSMSGLGC; CNP derivative D, which disclosed in Am. J. Hum. Gent.(2012), 91(6), 1108-1114)",–,significantly suppressed,significantly larger
"hCNP-53: human-derived CNP-53, DLRVDTKSRAAWARLLQEHPNARKYKGANKKGLSKGCFGLKLDRIGSMSGLGC: SEQ ID NO: 2 (DLRVDTKSRAAWARLLQEHPNARKYKGANKKGLSKGCFGLKLDRIGSMSGLGC; mammalian) [reference compound]",–,suppressed,significantly larger
